We go through 17 compounds from ChEMBL document CHEMBL5608204, “Disulfide bond replacement with non-reducible side chain to tail macrolactamization for the development of potent and selective CXCR4 peptide antagonists endowed with flanking binding sites” (Eur J Med Chem, 2024).

In data set [1] the target is T1, C-X-C chemokine receptor type 4 (Homo sapiens, UniProt P61073). Nature of the data set: Antagonist activity at CXCR4 in human CCRF-CEM cells assessed as inhibition of anti-CXCR4 binding preincubated with compound for 45 mins followed by anti-CXCR4 PE antibody addition and measured after 30 mins by fluorescence based competitive binding assay. The class given is functional, cell-based.

Data set [2] has as its target T1, C-X-C chemokine receptor type 4. In words: Displacement of 125I-CXCL12 from CXCR4 in human CCRF-CEM cells measured after 1 hr by competitive binding assay. The format is cell-based. For orientation: Displacement assays read how much labelled ligand stays bound in the presence of the test substance.
For data set [3] the target is unchanged. Nature of the data set: Agonist activity at CXCR4 in human CEM cells assessed as induction of CXCR4 internalization at 0.1 to 1 uM incubated for 45 mins by flow cytometry analysis. The class given is functional, cell-based. The note with it: dose 0.1-1 µM.
The subject of data set [4] is CCRF-CEM. In words: Inhibition of CXCL12-induced cell migration in human CCRF-CEM cells measured after 6 hrs by DAPI staining based analysis. The note with it: dose 0.01-10 µM. The class given is functional.
In data set [5] the target is T2, Atypical chemokine receptor 3 (Homo sapiens, UniProt P25106). Nature of the data set: Inhibition of CXCR7 (unknown origin) overexpressing human MCF7 cells at upto 10 uM by flow cytometry analysis relative to control. The format is cell-based. (In general: A flow cytometer gives signals particle by particle.)
The target of data set [6] is T1, C-X-C chemokine receptor type 4. In words: Antagonist activity at CXCR4 (unknown origin) transfected with CHO cells cotransfected with CXCR4-GFP assessed as inhibition of CXCL12 induced CXCR4 internalization at upto 1 uM preincubated for 45 mins followed by CXCL12 stimulation and measured after 30 to 90 mins by DAPI staining based microscopy analysis. The note with it: time 75-135 min. The class given is functional, cell-based.

Data set [7] shares this target. In words: Agonist activity at CXCR4 (unknown origin) transfected with CHO cells cotransfected with CXCR4-GFP assessed as induction of CXCR4 internalization at 0.1 to 1 uM incubated for 45 mins by DAPI staining based microscopy analysis. The format is functional, cell-based. The note with it: dose 0.1-1 µM.
A short description of data set [8]: Stability of the compound assessed as parent compound remaining in PBS buffer at pH 7.4 at 10 uM measured upto 8 hr in presence of glutathione by RP-HPLC analysis. The note with it: pH 7.4, 8 h. The class given is physicochemical.
Data set [9] deals with T2, Atypical chemokine receptor 3. In words: Binding affinity to CXCR7 (unknown origin) overexpressing human MCF7 cells by flow cytometry analysis. The format is cell-based.
Data set [10] is described as follows: Stability of the compound assessed as parent compound remaining in PBS buffer at pH 7.4 at 10 uM measured after 8 hr in presence of glutathione by RP-HPLC analysis. The format is physicochemical. The note with it: PBS buffer with glutathione, read-out: Stability.
A short description of data set [11]: Stability of the compound assessed as parent compound remaining in PBS buffer at pH 7.4 at 10 uM measured after 1 hr in presence of glutathione by RP-HPLC analysis. The format is physicochemical. The note with it: PBS buffer with glutathione, read-out: Stability.
Data set [12] deals with T1, C-X-C chemokine receptor type 4. Nature of the data set: Antagonist activity at CXCR4 in human CEM cells assessed as inhibition of CXCL12-induced CXCR4 internalization at 0.1 to 1 uM preincubated for 45 mins followed by CXCL12 stimulation and measured after 30 mins by flow cytometry analysis. The class given is functional, cell-based. The note with it: filed as antagonist, dose 0.1-1 µM, time 75.0 min.

Data set [13] has as its target T2, Atypical chemokine receptor 3. In words: Binding affinity to CXCR7 (unknown origin) overexpressing human MCF7 cells at upto 10 uM by flow cytometry analysis. The format is cell-based.
Data set [14] relates to CCRF-CEM. Nature of the data set: Inhibition of CXCL12-induced cell migration in human CCRF-CEM cells at 0.01 to 10 uM measured after 6 hrs by DAPI staining based analysis. The note with it: dose 0.01-10 µM. The format is functional.

Calls of active or inactive are those of the source. The rule behind the calls is not given here.

What is called IC50 is the concentration that inhibits the measured activity by half. What is called inhibition is the relative decrease from the control value, in per cent.

T2 sequence (P25106 whole entry): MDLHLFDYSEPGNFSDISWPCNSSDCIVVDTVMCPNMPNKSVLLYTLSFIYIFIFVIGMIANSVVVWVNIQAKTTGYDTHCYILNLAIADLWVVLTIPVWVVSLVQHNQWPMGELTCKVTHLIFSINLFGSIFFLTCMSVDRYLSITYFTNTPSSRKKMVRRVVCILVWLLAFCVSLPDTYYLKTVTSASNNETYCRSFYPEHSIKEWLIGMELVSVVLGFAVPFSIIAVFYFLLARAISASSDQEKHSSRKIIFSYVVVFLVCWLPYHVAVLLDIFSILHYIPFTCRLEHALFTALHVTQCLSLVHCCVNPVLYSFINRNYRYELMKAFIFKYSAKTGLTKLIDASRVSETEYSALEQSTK
T1 sequence (P61073 whole entry): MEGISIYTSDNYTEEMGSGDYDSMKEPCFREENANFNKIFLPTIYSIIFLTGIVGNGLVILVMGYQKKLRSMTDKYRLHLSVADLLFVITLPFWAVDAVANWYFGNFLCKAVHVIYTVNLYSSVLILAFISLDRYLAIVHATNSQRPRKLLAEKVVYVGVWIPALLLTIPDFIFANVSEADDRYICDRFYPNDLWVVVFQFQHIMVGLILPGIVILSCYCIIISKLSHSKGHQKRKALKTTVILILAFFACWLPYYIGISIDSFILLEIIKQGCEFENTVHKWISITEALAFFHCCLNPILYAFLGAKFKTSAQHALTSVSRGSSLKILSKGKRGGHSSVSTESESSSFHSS

For `CC(=O)N[C@@H](CCCNC(=N)N)C(=O)N[C@@H](C)C(=O)N[C@@H]1CCCCNC(=O)[C@H](CCC(=O)O)NC(=O)[C@H](Cc2c[nH]cn2)NC(=O)[C@H](Cc2ccc3ccccc3c2)NC(=O)[C@H](CCCNC(=N)N)NC1=O`, the IC50 in [1] (ccrf-cem) was over 10000 nM.

As to `CC(=O)N[C@@H](CCCNC(=N)N)C(=O)N[C@@H](C)C(=O)N[C@H]1CNC(=O)[C@@H](CC(=O)O)NC(=O)[C@H](Cc2c[nH]cn2)NC(=O)[C@H](Cc2ccc3ccccc3c2)NC(=O)[C@H](CCCNC(=N)N)NC1=O`, the half-inhibitory concentration (IC50) in data set [1] amounted to 187 nM.

For the compound `CC(=O)N[C@@H](CCCNC(=N)N)C(=O)N[C@@H](C)C(=O)N[C@@H]1Cn2cc(nn2)C[C@@H](C(=O)O)NC(=O)[C@H](Cc2c[nH]cn2)NC(=O)[C@H](Cc2ccc3ccccc3c2)NC(=O)[C@H](CCCNC(=N)N)NC1=O`, in [2] (ccrf-cem), the IC50 is 36 nM.

Regarding `CC(=O)N[C@@H](CCCNC(=N)N)C(=O)N[C@@H](C)C(=O)N[C@@H]1CNC(=O)[C@H](Cc2ccccc2)NC(=O)[C@H](Cc2c[nH]cn2)NC(=O)[C@H](Cc2ccc3ccccc3c2)NC(=O)[C@H](CCCNC(=N)N)NC1=O`, in [1] (ccrf-cem), the IC50 was 344 nM.

`CC(=O)N[C@@H](CCCNC(=N)N)C(=O)N[C@@H](C)C(=O)N[C@@H]1CCNC(=O)[C@H](CCC(=O)O)NC(=O)[C@H](Cc2c[nH]cn2)NC(=O)[C@H](Cc2ccc3ccccc3c2)NC(=O)[C@H](CCCNC(=N)N)NC1=O`: the IC50 in data set [1] (ccrf-cem) is 780 nM.

As for `CC(=O)N[C@@H](CCCNC(=N)N)C(=O)N[C@@H](C)C(=O)N[C@@H]1CNC(=O)[C@H](CCC(N)=O)NC(=O)[C@H](Cc2c[nH]cn2)NC(=O)[C@H](Cc2ccc3ccccc3c2)NC(=O)[C@H](CCCNC(=N)N)NC1=O`, in data set [1] (ccrf-cem), the IC50 worked out at 243 nM.

Regarding `CC(=O)N[C@@H](CCCNC(=N)N)C(=O)N[C@@H](C)C(=O)N[C@@H]1CCCNC(=O)[C@H](CCC(=O)O)NC(=O)[C@H](Cc2c[nH]cn2)NC(=O)[C@H](Cc2ccc3ccccc3c2)NC(=O)[C@H](CCCNC(=N)N)NC1=O`, the IC50 in data set [1] (ccrf-cem) is over 10000 nM.

On to `CC(=O)N[C@@H](CCCNC(=N)N)C(=O)N[C@@H](C)C(=O)N[C@H]1CNC(=O)[C@@H](CCC(=O)O)NC(=O)[C@H](Cc2c[nH]cn2)NC(=O)[C@H](Cc2ccc3ccccc3c2)NC(=O)[C@H](CCCNC(=N)N)NC1=O`, for which the outcome in data set [3], in [6] and in data set [7] was inactive. The inhibition entry is “Dose-Dependent Effect” in data set [4] and 37% in [5]. Also, the results for the IC50 in data set [1], in data set [2] and in [9] were 50 nM, 48 nM and over 10000 nM, respectively. Moreover, in data set [8], the Stability entry was “Stable”.

`CC(=O)N[C@@H](CCCNC(=N)N)C(=O)N[C@@H](C)C(=O)N[C@@H]1CNC(=O)[C@H](CCC(=O)O)NC(=O)[C@H](Cc2c[nH]cn2)NC(=O)[C@H](Cc2ccc3ccccc3c2)NC(=O)[C@H](CCCNC(=N)N)NC1=O`: the IC50 in data set [1] is over 10000 nM.

Take `CC(=O)N[C@@H](CCCNC(=N)N)C(=O)N[C@@H](C)C(=O)N[C@@H]1CCNC(=O)[C@H](CC(=O)O)NC(=O)[C@H](Cc2c[nH]cn2)NC(=O)[C@H](Cc2ccc3ccccc3c2)NC(=O)[C@H](CCCNC(=N)N)NC1=O`: the IC50 in data set [1] (ccrf-cem) amounted to 200 nM.

For the compound `CC(=O)N[C@@H](CCCNC(=N)N)C(=O)N[C@@H](C)C(=O)N[C@@H]1CSSC(C)(C)[C@@H](C(=O)O)NC(=O)[C@H](Cc2cnc[nH]2)NC(=O)[C@H](Cc2ccc3ccccc3c2)NC(=O)[C@H](CCCNC(=N)N)NC1=O`, the results for the IC50 in [1] and in data set [2] were 1 nM and 4.7 nM, respectively. Further, the remaining at 8 h, 10 µM in data set [10] is about 52%. In addition, the remaining at 1 h, 10 µM in data set [11] was about 88%.

In the case of `CC(=O)N[C@@H](CCCNC(=N)N)C(=O)N[C@@H](C)C(=O)N[C@@H]1CNC(=O)[C@@H](CC(=O)O)NC(=O)[C@H](Cc2c[nH]cn2)NC(=O)[C@H](Cc2ccc3ccccc3c2)NC(=O)[C@H](CCCNC(=N)N)NC1=O`, the IC50 in data set [1] was determined as 100 nM.

In the case of `CC(=O)N[C@@H](CCCNC(=N)N)C(=O)N[C@@H](C)C(=O)N[C@@H]1CCn2nncc2C[C@@H](C(=O)O)NC(=O)[C@H](Cc2c[nH]cn2)NC(=O)[C@H](Cc2ccc3ccccc3c2)NC(=O)[C@H](CCCNC(=N)N)NC1=O`, the IC50 in [2] (ccrf-cem) is 30 nM.

Turning to `CC(=O)N[C@@H](CCCNC(=N)N)C(=O)N[C@@H](C)C(=O)N[C@@H]1CNC(=O)[C@H](CCC(C)C)NC(=O)[C@H](Cc2c[nH]cn2)NC(=O)[C@H](Cc2ccc3ccccc3c2)NC(=O)[C@H](CCCNC(=N)N)NC1=O`, the IC50 in data set [1] (ccrf-cem) stood at 113 nM.

For `CC(=O)N[C@@H](CCCNC(=N)N)C(=O)N[C@@H](C)C(=O)N[C@@H]1CCCNC(=O)[C@H](CC(=O)O)NC(=O)[C@H](Cc2c[nH]cn2)NC(=O)[C@H](Cc2ccc3ccccc3c2)NC(=O)[C@H](CCCNC(=N)N)NC1=O`, the IC50 in data set [1] (ccrf-cem) worked out at 960 nM.

Consider `CC(=O)N[C@@H](CCCNC(=N)N)C(=O)N[C@@H](C)C(=O)N[C@@H]1CCCCNC(=O)[C@H](CC(=O)O)NC(=O)[C@H](Cc2c[nH]cn2)NC(=O)[C@H](Cc2ccc3ccccc3c2)NC(=O)[C@H](CCCNC(=N)N)NC1=O`, for which, in data set [1] (ccrf-cem), the IC50 is 1710 nM.

Consider `CC(=O)N[C@@H](CCCNC(=N)N)C(=O)N[C@@H](C)C(=O)N[C@@H]1CSSC(C)(C)[C@H](C(=O)O)NC(=O)[C@H](Cc2c[nH]cn2)NC(=O)[C@H](Cc2ccc3ccccc3c2)NC(=O)[C@H](CCCNC(=N)N)NC1=O`, for which the outcome in data set [3], in [13] and in data set [7] was inactive. In addition, the outcome in data set [12] was Active. In addition, the inhibition entry in data set [14] is “Active”.
